Assay results published in paper PMC9178010, “Identification and characterization of a prokaryotic 6-4 photolyase from Synechococcus elongatus with a deazariboflavin antenna chromophore” (Nucleic Acids Research, 2022).

Legend:
Assay type in all cases: binding
[1] = molecular target: T1, SePhrB (SePhrB[Ec]; SePhrB[ScFbiC]; SePhrB[8-HDF]) (Synechococcus elongatus, UniProt Q31P18); experiment: co-purified cofactor; absorption, fluorescence and TLC of denatured protein
T1 construct: gene Synpcc7942_1171; full-length gene in pET22b, E. coli BL21(DE3), Ni-NTA and Superdex 200; iron-sulfur cluster protein; expressed alone or with S. coelicolor FbiC
T1 sequence (Q31P18 1-503): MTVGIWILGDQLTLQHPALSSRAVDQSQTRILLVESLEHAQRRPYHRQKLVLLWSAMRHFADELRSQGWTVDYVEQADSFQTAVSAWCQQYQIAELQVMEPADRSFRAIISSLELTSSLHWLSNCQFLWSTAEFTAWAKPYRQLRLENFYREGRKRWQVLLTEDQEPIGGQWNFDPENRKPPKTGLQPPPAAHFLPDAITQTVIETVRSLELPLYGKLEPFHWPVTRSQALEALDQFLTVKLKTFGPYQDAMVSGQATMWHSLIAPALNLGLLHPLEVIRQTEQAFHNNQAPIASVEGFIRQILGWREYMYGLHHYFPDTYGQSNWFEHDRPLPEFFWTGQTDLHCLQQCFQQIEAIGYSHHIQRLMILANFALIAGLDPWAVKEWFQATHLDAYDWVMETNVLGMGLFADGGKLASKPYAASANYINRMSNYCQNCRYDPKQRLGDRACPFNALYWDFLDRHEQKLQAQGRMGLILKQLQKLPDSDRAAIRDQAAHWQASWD

[2] = molecular target: T2, SePhrA (SePhrA[ScFbiC]) (Synechococcus elongatus, UniProt Q31S25); experiment: as above; conditions: antenna chromophore; co-expressed with S. coelicolor FO synthase FbiC
T2 construct: gene Synpcc7942_0112; full-length gene in pET22b, E. coli BL21(DE3), co-expressed with S. coelicolor FbiC; Ni-NTA and Superdex 200
T2 sequence (Q31S25 1-484): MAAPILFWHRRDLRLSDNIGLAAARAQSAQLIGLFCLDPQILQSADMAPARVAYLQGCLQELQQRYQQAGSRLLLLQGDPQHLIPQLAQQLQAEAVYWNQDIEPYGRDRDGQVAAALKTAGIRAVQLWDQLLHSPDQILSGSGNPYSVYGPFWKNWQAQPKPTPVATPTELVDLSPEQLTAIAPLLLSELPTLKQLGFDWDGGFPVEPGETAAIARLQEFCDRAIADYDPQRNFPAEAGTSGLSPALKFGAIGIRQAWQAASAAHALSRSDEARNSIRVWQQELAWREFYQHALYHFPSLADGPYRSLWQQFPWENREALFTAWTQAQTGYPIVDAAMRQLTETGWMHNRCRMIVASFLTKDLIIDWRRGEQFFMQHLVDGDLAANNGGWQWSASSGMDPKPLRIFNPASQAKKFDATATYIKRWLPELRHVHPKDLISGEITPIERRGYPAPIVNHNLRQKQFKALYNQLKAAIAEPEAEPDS

[3] = molecular target: T3, AfPhrB (Agrobacterium fabrum, UniProt A9CH39); experiment: as above; conditions: co-purified from E. coli
T3 construct: gene phrB; synthetic phrB gene in pET22b, E. coli BL21(DE3), Ni-NTA and Superdex 200

[4] = molecular target: T2, SePhrA (SePhrA[ScFbiC]); experiment: TLC of denatured protein supernatant; conditions: catalytic cofactor; co-expressed with S. coelicolor FO synthase FbiC

T3 sequence (A9CH39 whole entry): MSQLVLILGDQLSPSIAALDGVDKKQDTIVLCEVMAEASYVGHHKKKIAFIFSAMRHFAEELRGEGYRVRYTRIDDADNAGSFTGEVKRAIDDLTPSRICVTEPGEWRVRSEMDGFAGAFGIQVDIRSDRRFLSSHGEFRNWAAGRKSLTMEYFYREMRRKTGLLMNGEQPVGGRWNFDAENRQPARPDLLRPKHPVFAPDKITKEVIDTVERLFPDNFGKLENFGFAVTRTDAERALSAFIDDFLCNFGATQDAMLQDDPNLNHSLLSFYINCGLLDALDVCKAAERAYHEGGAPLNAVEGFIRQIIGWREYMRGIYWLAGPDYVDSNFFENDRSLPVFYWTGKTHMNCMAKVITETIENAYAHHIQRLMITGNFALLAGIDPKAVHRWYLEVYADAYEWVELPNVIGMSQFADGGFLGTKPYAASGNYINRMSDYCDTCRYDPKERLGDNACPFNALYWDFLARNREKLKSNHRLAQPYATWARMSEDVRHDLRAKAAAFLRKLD

SMILES: O=c1nc2n(C[C@H](O)[C@H](O)[C@H](O)CO)c3cc(O)ccc3cc-2c(=O)[nH]1 [8-HDF, 7,8-didemethyl-8-hydroxy-5-deazariboflavin]
- co-purified cofactor; absorption, fluorescence and TLC of denatured protein ([1]; antenna chromophore, co-expressed with S. coelicolor FO synthase FbiC): SePhrB associates with FAD and 8-HDF when co-expressed with the ScFbiC
- co-purified cofactor; absorption, fluorescence and TLC of denatured protein [2]: an additional bright blue band that was attributed to 8-HDF

SMILES: Cc1nc2c(=O)[nH]c(=O)nc-2n(C[C@H](O)[C@H](O)[C@H](O)CO)c1C [DMRL, 6,7-dimethyl-8-ribityllumazine]
- co-purified cofactor; absorption, fluorescence and TLC of denatured protein ([3]; antenna chromophore): a yellow fluorescent band of FAD, and a blue-green fluorescent band of DMRL

SMILES: Cc1cc2nc3c(=O)[nH]c(=O)nc-3n(C[C@H](O)[C@H](O)[C@H](O)COP(=O)(O)OP(=O)(O)OC[C@H]3O[C@@H](n4cnc5c(N)ncnc54)[C@H](O)[C@@H]3O)c2cc1C [FAD]
- co-purified cofactor; absorption, fluorescence and TLC of denatured protein ([1]; catalytic cofactor, expressed in E. coli without FbiC, fully oxidized as purified): SePhrB[Ec] gave only one yellow fluorescent band with the same Rf value of authentic FAD
- co-purified cofactor; absorption, fluorescence and TLC of denatured protein ([3]; catalytic cofactor): the supernatant of AfphrB produced a yellow fluorescent band of FAD
- TLC of denatured protein supernatant [4]: each of them had a yellow FAD band
